{
  "source": "patent US20260060969A1",
  "about": "“METHODS FOR THE TREATMENT OF LYMPHOPROLIFERATIVE DISORDERS” (INSTITUT NATIONAL DE LA SANTÉ ET DE LA RECHERCHE MÉDICALE, priority 2022, published 2026)",
  "key": {"NZBWF1/J mice": {"tested_on": "NZBWF1/J mice", "assay": "Alpelisib in NZBWF1/J mice, model of lymphoproliferative disorders (spleen size, splenocyte flow cytometry)", "assay_type": "in vivo, mouse", "conditions": "female NZBWF1/J mice aged 24 weeks, 4 weeks treatment, vs vehicle", "procedure": "(§1) Inventors have first investigated the impact of PIK3CA inhibition in NZBWF1/J mice a model of lymphoproliferative disorders. They randomly assigned 30 females aged of 24 weeks to receive either vehicle (n=15) or alpelisib (n=15) during 4 weeks. At the end of the treatment period, mice were sacrificed and flow cytometry was performed in splenocytes.\n(§2) FIG. 1: Alpelisib improves lymphoproliferative mouse models. A. Spleen to body weight ratio at the time of sacrifice (4 weeks following treatment either with vehicle or alpelisib) (n=5-15 mice per group). B-F. Percentage of spleen cell population determined by flow cytometry analysis in NZBWF1/J mice treated with either vehicle or alpelisib. Spleen to body weight ratio of MRL-lpr mice treated either with vehicle or alpelisib for 4 weeks (n=14 mice per group). Percentage of peripheral blood monuclear cell (PBMC), bone marrow, spleen and lymph nodes cell population determined by flow cytometry analysis in MRL-lpr mice treated with either vehicle or alpelisib for 4 weeks (n=8-9 mice per group). CD4, CD8, B220, Mac1, Gr1 are used as lineage markers.\nas §1, with “We” for “Inventors have”, “We” for “They”"}, "[1]": {"tested_on": "MRL/MpJ-Faslpr/J mice (MRL-lpr)", "assay": "Alpelisib in MRL/MpJ-Faslpr/J (MRL-lpr) mice, model of lymphoproliferative disorder (spleen and lymph node size, flow cytometry)", "assay_type": "in vivo, mouse", "conditions": "4 weeks", "from_the_text": "(§3) They then decided to explore the relevance of alpelisib in MRL/MpJ-Faslpr/J mice (referred here as MRL-lpr), another mouse model of lymphoproliferative disorder. These mice with homozygous Fas mutation usually develop severe lymphadenoproliferation. Female mice die at an average of 18-20 weeks old. They first randomly assigned to either vehicle or alpelisib MRL-lpr female mice at 8 weeks old, before they fully develop diseases.\nas §2\nFIG. 2: Alpelisib modifies mononuclear cell population in MRL-lpr mice. Flow cytometry analysis of bone marrow, spleen, lymph nodes, and PBMC in MRL-lpr mice treated either with vehicle or alpelisib for 4 weeks (n=8-9 mice per group). CD4, CD8, B220, Mac1, Gr1 are used as lineage markers.\nas §3, with “We” for “They”"}, "PROS patients": {"tested_on": "PROS patients", "conditions": "PROS patients in poor condition; earlier work told in the background; cited from earlier work"}, "[2]": {"conditions": "MRL-lpr mice, PBMC, lymph nodes and spleen"}, "[3]": {"conditions": "female MRL-lpr mice treated from 8 weeks old, at sacrifice, vs vehicle"}},
  "data": [
    {"molecule": "Cc1nc(NC(=O)N2CCC[C@H]2C(N)=O)sc1-c1ccnc(C(C)(C)C(F)(F)F)c1", "note": "[alpelisib]", "values": [
      {"measurement": "spleen size (spleen to body weight ratio, FIG. 1A)", "setting": "NZBWF1/J mice; at sacrifice", "result": "significantly reduced"},
      {"measurement": "B cells (flow cytometry in splenocytes)", "setting": "NZBWF1/J mice; spleen", "result": "significantly reduced"},
      {"measurement": "CD8 cells count (flow cytometry in splenocytes)", "setting": "NZBWF1/J mice; spleen", "result": "corrected"},
      {"measurement": "B cells (flow cytometry)", "setting": "[1]; [2]", "result": "correction"},
      {"measurement": "T cells (flow cytometry)", "setting": "[1]; [2]", "result": "correction"},
      {"measurement": "other immune cells (flow cytometry)", "setting": "[1]; [2]", "result": "correction"},
      {"measurement": "lymph node size", "setting": "[1]; [3]", "result": "reduction"},
      {"measurement": "spleen size", "setting": "[1]; [3]", "result": "reduction"},
      {"measurement": "clinical, biological and radiological outcome", "setting": "PROS patients", "result": "clinical, biological and radiological improvements"}
    ]}
  ]
}
